Measured values reported in PubChem BioAssay (NCI).
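Results reflect a 48-hour exposure of cells in 96-well plates to compound at five concentrations. GI50: concentration for 50% inhibition of growth. TGI: total growth inhibition.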

Key:
Assay in all cases: NCI-60 cell line screen, 48 h
[1] = test system: T-47D breast
[2] = test system: SF-539 CNS
[3] = test system: NCI-H226 lung
[4] = test system: MALME-3M melanoma
[5] = test system: SW-620 colon
[6] = test system: IGROV1 ovarian
[7] = test system: SK-MEL-28 melanoma
[8] = test system: SK-MEL-2 melanoma

Compound | GI50 [1] | TGI [1] | GI50 [2] | TGI [2] | GI50 [3] | TGI [3] | GI50 [4] | TGI [4] | GI50 [5] | TGI [5] | GI50 [6] | TGI [6] | GI50 [7] | TGI [7] | GI50 [8] | TGI [8]
O=C(O)c1cn(C2CC2)c2cc(N3CCN(S(=O)(=O)c4ccc(Cl)c(Cl)c4)CC3)c(F)cc2c1=O | 3.77 µM | > 100 µM | 3.39 µM | > 100 µM | 3.58 µM | > 100 µM | 2.3 µM | 5.24 µM | 4.05 µM | > 100 µM |  |  |  |  |  | 
C[C@@H]1CN(Cc2ccc(/C=C/c3n[nH]c4ccc5nc(-c6cn[nH]c6C(F)(F)F)c6c(c5c34)CCCC6)cc2)C[C@H](C)O1 | 6.66 µM | 26.4 µM | 2.97 µM | 14.7 µM | 6.19 µM | 32.8 µM | 4.96 µM | 20.9 µM | 2.02 µM | 10.1 µM | 1.33 µM | 10.7 µM | 7.11 µM | 21.2 µM | 13.5 µM | 33.8 µM
Clc1ccccc1-c1nc2ccccc2[nH]1 | > 100 µM | > 100 µM | > 100 µM | > 100 µM | > 100 µM | > 100 µM | > 100 µM | > 100 µM | > 100 µM | > 100 µM | 91.7 µM | > 100 µM | > 100 µM | > 100 µM | > 100 µM | > 100 µM
NC1=CC(=O)C(=O)c2cccnc21 | 3.68 µM | 9.73 µM | 7.59 µM | 20.3 µM | 14.7 µM | 42.5 µM | 2.22 µM | 4.63 µM | 8.67 µM | 24.3 µM | 7.91 µM | 23.1 µM | 2.6 µM | 6.38 µM | 3.85 µM | 15.6 µM
Cc1cc(-c2ccccc2)c(C)n1Cc1ccc(Cl)cc1 | 5.26 µM | > 100 µM | 2.8 µM | 12.1 µM | 26.3 µM | > 100 µM | 3.85 µM | 39.1 µM | 3.06 µM | > 100 µM | 5.21 µM | > 100 µM | 6.18 µM | > 100 µM | 4.24 µM | 19.5 µM
N=C(N)n1[nH]c2c(c1=O)CCC2 |  |  |  | > 100 µM |  | > 100 µM |  | > 100 µM |  | > 100 µM |  | > 100 µM |  | > 100 µM |  | > 100 µM
COc1ccc(N2CCN(CC(=O)N3CCN(c4nnc(-c5ccccc5)c(-c5ccccc5)n4)CC3)CC2)cc1 | 2.56 µM | 18.5 µM | 7.71 µM | > 81.9 µM | > 100 µM | > 100 µM | 6.82 µM | > 100 µM | 10.4 µM | > 100 µM | 43.2 µM | > 100 µM | 11.9 µM | > 100 µM | 51.3 µM | > 100 µM
COC(=O)c1[nH]nc(-c2ccccc2)c1N1CCCCC1 | 27 µM | 72.4 µM | 20.6 µM | 57.4 µM | 13.2 µM | 36.5 µM | 39.3 µM | > 100 µM | 75.6 µM | > 100 µM | 60.8 µM | > 100 µM | 52.1 µM | > 100 µM | > 100 µM | > 100 µM
COc1ccc(/C=C/c2nc(N3CCOCC3)c3cc(F)c(F)cc3n2)cc1OC | 1.49 µM | 9.72 µM | > 100 µM | > 100 µM | 3.07 µM | > 100 µM |  |  | 6.1 µM | > 100 µM | 47.4 µM | > 100 µM | 5.53 µM | > 100 µM | 9.48 µM | > 100 µM
CCCCNC(=S)/N=C/c1c(O)c2ccccc2oc1=O |  | > 100 µM |  | > 100 µM |  | > 100 µM |  |  |  | > 100 µM |  | > 100 µM |  | > 100 µM |  | > 100 µM
COc1cc(C(=O)/C=C/c2c(-c3ccc(F)cc3)nc3sccn23)cc(OC)c1OC | 2.3 µM | 14.3 µM | 1.59 µM | 3.62 µM | 2.09 µM | 9.99 µM | 3.96 µM | > 33.9 µM | 2.92 µM | 11.2 µM | 3.49 µM |  | 4.84 µM | 17.2 µM | 5.59 µM | > 27.9 µM
COc1cc(/C=C/C(=O)c2c(C)n([O-])c3cc(C)c(C)cc3[n+]2=O)cc(OC)c1OC | 20.5 µM | 73.7 µM | 14.9 µM | 31.6 µM | 21.6 µM | 55.5 µM | 19.6 µM | 41.1 µM | 13.6 µM | 40.7 µM | 12.8 µM | 29.4 µM | 19 µM | 46.7 µM | 16.4 µM | 32.9 µM
CC12C=CC(C)(O1)C1C2c2ccccc2S1(=O)=O (centres undefined) | 95.5 µM | > 100 µM | 85.4 µM | > 100 µM | 42 µM | > 100 µM | 50.3 µM | > 100 µM | 39.9 µM | > 100 µM | 25.1 µM | 95.3 µM | 91.9 µM | > 100 µM |  | 
COc1ccc(-c2nnc3n(C)c(=O)c4ccccc4n23)cc1O | 2.41 µM | > 100 µM | 0.596 µM | 6.68 µM | 16.9 µM | > 100 µM |  |  | 0.149 µM | > 100 µM | 2.69 µM | > 86.3 µM | 12.2 µM | > 100 µM | 0.14 µM | 37.5 µM
O=C1C=C(N2CC2)c2ccccc2C1=O | 1.88 µM | 4.17 µM | 1.83 µM | 3.34 µM |  |  | 1.93 µM | 3.39 µM | 1.34 µM | 2.92 µM | 1.79 µM | 3.23 µM | 1.77 µM | 3.17 µM | 2.28 µM | 4.34 µM
O=C1C2C(C(=O)[N]1[Hg][c]1ccccc1)C1(Cl)C(Cl)=C(Cl)C2(Cl)C1(Cl)Cl (centres undefined) | 0.225 µM | 1.58 µM |  |  | 1.59 µM | 4.18 µM | 1.32 µM | 3.02 µM | 0.464 µM | 1.8 µM | 1.2 µM | 3.63 µM | 1.38 µM | 2.73 µM | 1.49 µM | 3.15 µM
N/C(=N\OC(=O)NC(Cl)=C(Cl)Cl)c1cc(C(F)(F)F)cc(C(F)(F)F)c1 |  | 25.7 µM |  | 29.9 µM |  | 55.9 µM |  | 48.6 µM |  | 40.3 µM |  | 66 µM |  | 32.8 µM |  | 
O=C(/C=C/c1cccs1)c1ccsc1 |  | 72 µM |  |  |  | 48.5 µM |  | 59 µM |  | 75.2 µM |  | 73.6 µM |  | 81.7 µM |  | > 100 µM
COc1cc2c(cc1OCCCCCCNC(=O)c1cc3ccccc3[nH]1)N=CC1CCCN1C2=O (centres undefined) | 15.4 µM | > 100 µM | 17 µM | 33.4 µM | 58 µM | > 100 µM | 20.5 µM | > 100 µM | 38.6 µM | > 100 µM | 17.4 µM | > 100 µM | > 100 µM | > 100 µM |  | 
CC1OC(OC2C(OC3C[C@@]4(C)C(C[C@H](O)[C@H]5[C@H](C6(C)CCC(C(C)(C)O)O6)CCC54C)[C@]4(C)CC[C@@H](O)C(C)(C)C34)OC(CO)C(O)C2O)C(O)C(O)C1O (some centres undefined) (tested in a mixture with another compound) |  | > 100 µM |  | > 100 µM |  | > 100 µM |  |  |  | > 100 µM |  | > 100 µM |  | > 100 µM |  | > 100 µM
COc1cc2c(cc1OCCCCC(=O)Nc1ccc(-c3nc4ccccc4s3)cc1)N=C[C@@H]1CCCN1C2=O | 1.96 µM | 10.1 µM | 1.59 µM | 3.38 µM | 2.91 µM | 7.83 µM |  |  | 1.64 µM | 4.03 µM | 0.695 µM | 2.27 µM | 2.23 µM | 5.81 µM | 1.95 µM | 4.22 µM
O=C1Cc2ccccc2N1/N=C\c1ccc(O)cc1 |  |  |  | > 100 µM |  | > 100 µM |  | > 100 µM |  | > 100 µM |  | > 100 µM |  | > 100 µM |  | > 100 µM
COc1ccc(S(=O)(=O)O)cc1NS(=O)(=O)c1ccc(C)cc1 |  | > 100 µM |  | > 100 µM |  | > 100 µM |  |  |  | > 100 µM |  | > 100 µM |  | > 100 µM |  | > 100 µM
Cc1nc2ccccc2c(=O)n1NC(=O)Cc1ccccc1 |  | > 100 µM |  | > 100 µM |  | > 100 µM |  | > 100 µM |  | > 100 µM |  | > 100 µM |  | > 100 µM |  | 
Cc1cc[c-]cc1.Fc1c[c-]c(-c2ccccn2)c(F)c1.N#CCC[PH+](CCC#N)c1ccccc1.[Pt+2] | 2.79 µM | 41.1 µM | 2.92 µM | 10.3 µM | 2.62 µM | 7.06 µM |  |  | 2.25 µM | 5.35 µM | 2.89 µM | 21.9 µM | 2.18 µM | 4.84 µM | 2.41 µM | 6.57 µM
COC(=O)[C@]12CC[C@@H](C)[C@H](C)[C@@H]1C1=CC[C@@H]3[C@@]4(C)C(c5ncon5)=C[C@@](C)(CO)C4=CC[C@@]3(C)[C@]1(C)CC2 | 1.99 µM | 5.86 µM | 1.97 µM | 3.89 µM | 1.99 µM | 4.4 µM | 1.67 µM | 3.55 µM | 1.96 µM | 3.85 µM | 2.47 µM | 7.19 µM |  |  | 2.05 µM | 4.22 µM
